Data as given in patent publication US7253178B2, “Carboxylic acids” (Eisai Co., Ltd., priority 2001, dated 2007).

How the values were obtained:
Assay in all cases: Transcriptional activity, GAL4-PPAR LBD chimera / PLAP reporter in CV-1 cells
Format in all cases: cell-based
PPAR α = molecular target: T1, PPAR α (Homo sapiens, UniProt Q07869); settings: GAL4-PPARα LBD (167-468), PLAP activity 24 hours after addition, read-out: Transcriptional activities EC50 PPAR α
T1 construct: human PPAR 167-468 (PPARα); expressed in transfected cells; host or cells: CV-1 (ATCC CCL-70)
T1 sequence (Q07869 167-468): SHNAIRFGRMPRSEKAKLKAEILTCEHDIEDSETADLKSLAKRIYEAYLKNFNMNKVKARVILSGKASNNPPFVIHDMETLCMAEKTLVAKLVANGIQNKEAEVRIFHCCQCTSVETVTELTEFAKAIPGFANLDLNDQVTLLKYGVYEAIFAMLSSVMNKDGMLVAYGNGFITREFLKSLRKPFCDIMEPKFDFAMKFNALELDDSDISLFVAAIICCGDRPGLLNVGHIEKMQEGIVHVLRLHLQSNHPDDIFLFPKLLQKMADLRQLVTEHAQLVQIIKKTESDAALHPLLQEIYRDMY
Source text: (§1) A GAL4-PPAR LBD chimera expression vector was constructed by ligating human PPAR 167-468 (PPARα), 138-440 (NUC-1) and 174-475 (PPARγ) amino acid regions (LBD: Ligand Binding Domain) to a yeast transcriptional factor GAL4 1-147 amino acid region. As the reporter gene, PLAP (Placental Alkaline Phosphatase) was used, and this was ligated downstream of a TK promoter containing a 5-copy GAL4 DNA binding element to construct a vector. As host cells, CV-1 (ATCC CCL-70) was used. That is, CV-1 cells were spread at a density of 5×10^5 cells on a 35-mm dish and cultured in 10% FCS/DMEM for 24 hours, and using FuGENE 6 transfection reagent, the cells were co-transfected with the GAL4-PPAR LBD expression vector and GAL4 DBD-TK-PLAP expression vector. 24 hours after this transfection, the cells were spread again on a 96-well plate at a density of 1×10^4/well and further cultured for 24 hours. After 24 hours, the medium was exchanged with DMEM containing 10% FCS, which was previously treated at 65° C. for inactivating intrinsic alkaline phosphatase, and a test compound was added at an arbitrary concentration. The transcriptional activity was determined in terms of PLAP activity secreted 24 hours after addition of the compound, to calculate EC50. The PLAP activity was determined after adding 50 μl assay buffer and 50 μl chemoluminescence substrate to 10 μl culture supernatant and incubating the mixture at room temperature for 1 hour. The transcriptional activities for PPAR, PPARβ(δ) and PPARγ are shown respectively in Table 1.

PPAR β = molecular target: T2, PPAR β (Homo sapiens, UniProt Q03181); settings: GAL4-NUC-1 LBD (138-440), PLAP activity 24 hours after addition, read-out: Transcriptional activities EC50 PPAR β
T2 construct: 138-440 (NUC-1); expressed in transfected cells; host or cells: CV-1 (ATCC CCL-70)
T2 sequence (Q03181 138-440): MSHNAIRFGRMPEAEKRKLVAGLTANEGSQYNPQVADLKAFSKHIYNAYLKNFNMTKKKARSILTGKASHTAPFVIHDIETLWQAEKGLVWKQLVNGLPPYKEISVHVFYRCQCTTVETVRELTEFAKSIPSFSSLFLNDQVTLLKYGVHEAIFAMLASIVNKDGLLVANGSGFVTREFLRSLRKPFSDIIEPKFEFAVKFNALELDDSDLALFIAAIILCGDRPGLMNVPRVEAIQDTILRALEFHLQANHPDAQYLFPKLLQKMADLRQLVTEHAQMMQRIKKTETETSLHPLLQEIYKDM
Source text: as §1

PPAR γ = molecular target: T3, PPAR γ (Homo sapiens, UniProt P37231); settings: GAL4-PPARγ LBD (174-475), PLAP activity 24 hours after addition, read-out: Transcriptional activities EC50 PPAR γ
T3 construct: 174-475 (PPARγ); expressed in transfected cells; host or cells: CV-1 (ATCC CCL-70)
T3 sequence (P37231 174-475 isoform P37231-2): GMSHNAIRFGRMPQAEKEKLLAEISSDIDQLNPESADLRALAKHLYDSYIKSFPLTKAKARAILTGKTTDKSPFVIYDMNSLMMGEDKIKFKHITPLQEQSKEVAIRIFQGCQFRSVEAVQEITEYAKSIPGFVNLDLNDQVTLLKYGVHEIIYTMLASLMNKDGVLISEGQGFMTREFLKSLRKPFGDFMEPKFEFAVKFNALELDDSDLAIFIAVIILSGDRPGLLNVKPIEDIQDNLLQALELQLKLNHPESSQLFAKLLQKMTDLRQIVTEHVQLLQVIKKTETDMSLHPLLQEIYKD
Source text: as §1

EC50 (PPAR α) [nM]	EC50 (PPAR β) [nM]	EC50 (PPAR γ) [nM]	SMILES
5.6	1410	68.5	CC(C)OC(Cc1ccnc(OCCOc2ccc(Cl)cc2Cl)c1)C(=O)O (stereo not drawn) [Example 1, 3-{2-[2-(2,4-Dichlorophenoxy)ethoxy]-4-pyridyl}-2-isopropoxypropanoic acid]
4.9	339	64.1	CCOC(Cc1ccnc(OCCOc2ccc(C(F)(F)F)cc2)c1)C(=O)O (stereo not drawn) [Example 19, 2-Ethoxy-3-(2-{2-[4-(trifluoromethyl)phenoxy]ethoxy}-4-pyridyl)propanoic acid]
2.7	1580	76.3	CCOC(Cc1ccnc(OCCOc2ccc(C(C)(C)C)cc2)c1)C(=O)O (stereo not drawn) [Example 25, 3-(2-{2-[4-(tert-Butyl)phenoxy]ethoxy}-4-pyridyl)-2-ethoxypropanoic acid]
